Experiment [1] has as its target Tyrosine-protein kinase Lyn (Homo sapiens, UniProt P07948). Description: Selectivity interaction (ProQinase) EUB0000171b LYN.
Experiment [2] has as its target Mitogen-activated protein kinase 3 (Homo sapiens, UniProt P27361). The settings on record: at 10 µM.
The target of experiment [3] is Interleukin-1 receptor-associated kinase 1 (Homo sapiens) (UniProt P51617). Description: Selectivity interaction (KinomeScan (DiscoverX)) EUB0001079a IRAK1. The settings on record: at 1 µM.
Chain of Interleukin-1 receptor-associated kinase 1 (Homo sapiens) (P51617 whole entry, looked up): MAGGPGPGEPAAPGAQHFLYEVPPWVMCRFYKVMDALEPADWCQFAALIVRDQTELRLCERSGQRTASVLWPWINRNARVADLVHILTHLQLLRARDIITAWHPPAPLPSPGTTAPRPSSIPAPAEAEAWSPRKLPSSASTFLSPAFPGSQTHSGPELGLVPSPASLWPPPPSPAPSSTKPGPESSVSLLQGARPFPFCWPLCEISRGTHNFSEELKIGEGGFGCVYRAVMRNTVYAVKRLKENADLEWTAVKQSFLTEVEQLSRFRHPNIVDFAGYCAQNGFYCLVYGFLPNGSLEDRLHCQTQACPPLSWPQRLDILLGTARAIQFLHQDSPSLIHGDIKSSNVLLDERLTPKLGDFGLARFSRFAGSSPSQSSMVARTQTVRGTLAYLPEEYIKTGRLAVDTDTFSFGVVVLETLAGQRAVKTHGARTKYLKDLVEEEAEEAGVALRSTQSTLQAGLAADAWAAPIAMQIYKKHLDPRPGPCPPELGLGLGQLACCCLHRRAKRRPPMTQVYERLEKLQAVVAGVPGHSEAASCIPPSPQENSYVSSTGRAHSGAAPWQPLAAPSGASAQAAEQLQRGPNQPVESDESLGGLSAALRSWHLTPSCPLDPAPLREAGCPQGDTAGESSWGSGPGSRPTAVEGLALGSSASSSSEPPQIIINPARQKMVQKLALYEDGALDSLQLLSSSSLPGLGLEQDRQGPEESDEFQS
Experiment [4] addresses T1, SNF-related serine/threonine-protein kinase (Homo sapiens) (UniProt Q9NRH2).
T1 sequence (whole entry): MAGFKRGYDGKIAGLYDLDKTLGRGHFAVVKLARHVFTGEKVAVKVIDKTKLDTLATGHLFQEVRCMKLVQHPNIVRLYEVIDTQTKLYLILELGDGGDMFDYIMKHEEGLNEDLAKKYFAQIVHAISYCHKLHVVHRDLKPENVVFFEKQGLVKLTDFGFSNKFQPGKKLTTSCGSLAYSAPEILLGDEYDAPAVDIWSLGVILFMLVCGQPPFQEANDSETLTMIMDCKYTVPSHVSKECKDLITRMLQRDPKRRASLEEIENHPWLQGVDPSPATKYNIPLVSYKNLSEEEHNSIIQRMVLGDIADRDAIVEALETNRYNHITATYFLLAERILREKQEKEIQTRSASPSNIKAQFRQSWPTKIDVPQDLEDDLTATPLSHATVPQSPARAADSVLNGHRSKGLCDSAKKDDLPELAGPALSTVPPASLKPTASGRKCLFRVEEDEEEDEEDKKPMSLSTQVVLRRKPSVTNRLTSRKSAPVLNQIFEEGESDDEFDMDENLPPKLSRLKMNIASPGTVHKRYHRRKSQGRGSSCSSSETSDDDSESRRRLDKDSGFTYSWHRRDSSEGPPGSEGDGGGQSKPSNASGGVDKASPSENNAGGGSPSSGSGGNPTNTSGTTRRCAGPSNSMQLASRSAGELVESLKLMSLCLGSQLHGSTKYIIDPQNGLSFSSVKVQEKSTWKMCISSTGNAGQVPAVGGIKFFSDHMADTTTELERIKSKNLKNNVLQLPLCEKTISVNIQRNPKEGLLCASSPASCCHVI
Description: Selectivity interaction (KinomeScan (DiscoverX)) EUB0001079a SNRK. The settings on record: at 1 µM.

The target of experiment [5] is T2, Activin receptor type-1B (Homo sapiens) (UniProt P36896).
T2 sequence (whole entry): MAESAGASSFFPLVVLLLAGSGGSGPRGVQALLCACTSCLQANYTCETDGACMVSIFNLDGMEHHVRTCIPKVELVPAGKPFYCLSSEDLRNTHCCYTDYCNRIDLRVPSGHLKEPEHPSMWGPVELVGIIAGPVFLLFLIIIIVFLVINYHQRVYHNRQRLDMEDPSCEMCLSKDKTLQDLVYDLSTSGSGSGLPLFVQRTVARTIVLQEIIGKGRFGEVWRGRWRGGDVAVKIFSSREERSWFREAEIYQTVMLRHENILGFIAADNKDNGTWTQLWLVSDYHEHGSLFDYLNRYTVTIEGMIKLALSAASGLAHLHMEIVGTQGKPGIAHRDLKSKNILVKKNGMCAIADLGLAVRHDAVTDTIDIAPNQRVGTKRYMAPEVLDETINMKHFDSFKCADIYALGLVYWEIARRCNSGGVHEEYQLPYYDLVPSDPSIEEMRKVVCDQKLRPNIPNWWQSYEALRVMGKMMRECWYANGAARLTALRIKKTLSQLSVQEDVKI
In words: Selectivity interaction (KinomeScan (DiscoverX)) EUB0000045b ACVR1B.

Experiment [6] addresses T3, Serine/threonine-protein kinase Chk1 (Homo sapiens) (UniProt O14757).
T3 sequence (whole entry): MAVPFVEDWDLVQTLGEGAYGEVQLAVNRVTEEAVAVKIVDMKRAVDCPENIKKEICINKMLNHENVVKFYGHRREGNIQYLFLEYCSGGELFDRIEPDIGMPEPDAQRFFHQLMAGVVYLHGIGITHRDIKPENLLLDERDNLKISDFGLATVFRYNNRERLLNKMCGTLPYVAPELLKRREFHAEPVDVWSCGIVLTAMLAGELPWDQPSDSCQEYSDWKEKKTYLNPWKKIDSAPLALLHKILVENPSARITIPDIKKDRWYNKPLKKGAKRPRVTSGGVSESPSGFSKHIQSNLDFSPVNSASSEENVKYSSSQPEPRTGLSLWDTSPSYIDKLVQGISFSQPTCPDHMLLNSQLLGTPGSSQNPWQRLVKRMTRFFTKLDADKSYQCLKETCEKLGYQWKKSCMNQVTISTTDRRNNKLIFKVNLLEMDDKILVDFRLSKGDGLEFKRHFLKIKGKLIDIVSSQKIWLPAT
In words: Selectivity interaction (Kinase panel (Z-LYTE Assay)) EUB0001632a CHEK1. The settings on record: at 10 µM.

Experiment [7] has as its target T4, Ankyrin repeat and protein kinase domain-containing protein 1 (Homo sapiens) (UniProt Q8NFD2).
T4 sequence (whole entry): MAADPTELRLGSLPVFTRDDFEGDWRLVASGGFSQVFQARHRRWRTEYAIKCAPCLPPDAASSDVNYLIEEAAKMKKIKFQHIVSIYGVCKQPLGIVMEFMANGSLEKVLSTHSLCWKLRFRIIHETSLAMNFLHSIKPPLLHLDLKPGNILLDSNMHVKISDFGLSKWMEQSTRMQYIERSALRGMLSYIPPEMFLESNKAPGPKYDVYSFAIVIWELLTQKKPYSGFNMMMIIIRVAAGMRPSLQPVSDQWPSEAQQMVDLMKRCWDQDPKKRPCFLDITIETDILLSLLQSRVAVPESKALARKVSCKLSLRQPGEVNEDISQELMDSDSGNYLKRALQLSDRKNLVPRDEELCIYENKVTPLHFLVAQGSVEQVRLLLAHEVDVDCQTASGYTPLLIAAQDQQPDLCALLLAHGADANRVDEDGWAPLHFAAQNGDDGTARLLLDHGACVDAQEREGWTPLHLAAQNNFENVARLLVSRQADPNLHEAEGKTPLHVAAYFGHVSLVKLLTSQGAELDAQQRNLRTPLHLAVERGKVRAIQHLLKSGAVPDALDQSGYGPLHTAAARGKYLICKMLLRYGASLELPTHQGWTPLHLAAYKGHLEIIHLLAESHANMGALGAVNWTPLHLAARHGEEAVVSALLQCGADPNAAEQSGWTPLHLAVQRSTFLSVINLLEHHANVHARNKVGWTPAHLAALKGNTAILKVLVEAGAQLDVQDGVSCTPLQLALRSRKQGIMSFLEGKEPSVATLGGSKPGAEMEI
Description: Selectivity interaction (KinomeScan (DiscoverX)) EUB0000607a ANKK1. The settings on record: at 10 µM.

In experiment [8] the target is Serine/threonine-protein kinase pim-1 (Homo sapiens, UniProt P11309). In words: Selectivity interaction (SelectScreen profiling (Invitrogen)) EUB0000607a PIM1. The settings on record: at 2 µM.
Chain of Serine/threonine-protein kinase pim-1 (P11309 whole entry, looked up): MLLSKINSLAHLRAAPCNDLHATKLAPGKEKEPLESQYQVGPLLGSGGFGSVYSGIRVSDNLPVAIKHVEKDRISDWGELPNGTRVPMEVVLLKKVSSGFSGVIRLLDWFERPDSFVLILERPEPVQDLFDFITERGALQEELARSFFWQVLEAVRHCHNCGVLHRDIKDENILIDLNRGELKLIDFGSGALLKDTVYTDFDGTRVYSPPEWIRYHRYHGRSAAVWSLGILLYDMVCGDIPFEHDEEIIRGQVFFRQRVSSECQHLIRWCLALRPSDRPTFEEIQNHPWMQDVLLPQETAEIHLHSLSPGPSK
In experiment [9] the target is Dual specificity protein kinase CLK1 (Homo sapiens, UniProt P49759). Description: Selectivity interaction (KinomeScan (DiscoverX)) EUB0000595a CLK1. The settings on record: at 10 µM.
Chain of Dual specificity protein kinase CLK1 (P49759 whole entry, looked up): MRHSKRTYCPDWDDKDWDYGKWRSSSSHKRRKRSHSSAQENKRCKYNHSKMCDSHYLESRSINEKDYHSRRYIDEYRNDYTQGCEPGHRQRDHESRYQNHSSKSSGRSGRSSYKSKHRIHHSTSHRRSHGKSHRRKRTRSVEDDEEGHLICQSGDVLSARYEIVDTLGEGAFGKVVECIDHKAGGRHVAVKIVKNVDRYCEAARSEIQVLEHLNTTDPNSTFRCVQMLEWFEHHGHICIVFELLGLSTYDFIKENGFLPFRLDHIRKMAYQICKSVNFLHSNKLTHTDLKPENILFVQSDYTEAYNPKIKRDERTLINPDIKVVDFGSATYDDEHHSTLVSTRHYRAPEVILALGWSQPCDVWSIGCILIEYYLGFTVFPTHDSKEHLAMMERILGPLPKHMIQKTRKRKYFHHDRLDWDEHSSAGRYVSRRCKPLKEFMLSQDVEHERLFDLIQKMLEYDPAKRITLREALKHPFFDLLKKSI

Each structure is given as a SMILES string.

Chain of Tyrosine-protein kinase Lyn (P07948 2-512 limits assumed): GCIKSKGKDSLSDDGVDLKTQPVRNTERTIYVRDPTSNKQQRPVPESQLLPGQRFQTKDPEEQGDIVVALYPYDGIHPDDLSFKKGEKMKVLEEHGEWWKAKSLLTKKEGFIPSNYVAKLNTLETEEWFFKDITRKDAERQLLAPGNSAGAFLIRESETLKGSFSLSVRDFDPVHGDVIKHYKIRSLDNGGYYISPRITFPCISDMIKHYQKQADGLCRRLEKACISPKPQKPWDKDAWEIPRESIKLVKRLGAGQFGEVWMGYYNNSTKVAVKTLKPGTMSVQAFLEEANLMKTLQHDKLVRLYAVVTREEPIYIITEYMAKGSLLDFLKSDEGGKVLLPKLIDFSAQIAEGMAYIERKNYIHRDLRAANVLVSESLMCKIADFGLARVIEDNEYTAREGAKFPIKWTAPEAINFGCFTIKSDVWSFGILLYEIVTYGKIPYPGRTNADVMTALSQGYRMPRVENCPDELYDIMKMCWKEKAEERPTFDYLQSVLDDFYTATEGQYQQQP
Chain of Mitogen-activated protein kinase 3 (P27361 whole entry): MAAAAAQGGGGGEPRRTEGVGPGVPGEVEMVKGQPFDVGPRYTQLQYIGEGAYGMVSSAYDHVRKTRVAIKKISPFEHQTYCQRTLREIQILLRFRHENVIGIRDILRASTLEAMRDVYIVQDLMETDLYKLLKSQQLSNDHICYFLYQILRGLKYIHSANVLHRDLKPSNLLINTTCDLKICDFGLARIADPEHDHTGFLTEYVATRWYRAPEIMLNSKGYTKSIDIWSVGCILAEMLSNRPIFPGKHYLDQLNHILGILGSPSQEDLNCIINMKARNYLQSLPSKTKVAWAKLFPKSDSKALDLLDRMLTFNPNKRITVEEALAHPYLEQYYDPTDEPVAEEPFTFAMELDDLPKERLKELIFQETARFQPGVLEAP

Take `C=CC(=O)Nc1cccc(C(=O)Nc2ccc(Nc3cc(-c4[nH]c(SC)nc4C)ccn3)cc2)c1`: the % of control in experiment [1] (at 1 µM) came to 99%; in [1] (at 5 µM) it was 94%. Take `CCN(CC)CCCCNc1ncc2cc(-c3cc(OC)cc(OC)c3)c(NC(=O)NC(C)(C)C)nc2n1`: the % of control in experiment [2] is 100%.

On to `Nc1cnc(N2CCc3cc(S(=O)(=O)Nc4c(F)cc(Cl)cc4F)cc(N4CCCC4=O)c32)nc1` [TP-020n], for which the % of control in experiment [3] and in [4] was 100% throughout. Take `C=CC(=O)Nc1cc(-n2c(=O)ccc3cnc4ccc(-c5ccc(NS(C)(=O)=O)cc5)cc4c32)ccc1C`: the % of control was determined as 84% in [5] (at 1 µM) and 100% in experiment [5] (at 10 µM). In experiment [6], `Cn1cc(-n2cnc3c(NCc4nc5cc(Cl)c(Cl)cc5[nH]4)nc(N4CCOCC4)nc32)cn1` registered a % of control of 37.8%. For `CNC(=O)Nc1ccc(-c2nc(N3CC4CCC(C3)O4)c3cnn(C4CCC5(CC4)OCCO5)c3n2)cc1`, the % of control in experiment [7] was determined as 77%. Also, the % of inhibition in experiment [8] turned out to be 1%. Molecule `COCC(=O)NC/C=C/c1ccc2ncnc(Nc3ccc(Oc4ccc(C)nc4)c(C)c3)c2c1` [CP-724714] displayed a % of control in experiment [9] of 90%.

The values above are taken from ChEMBL document CHEMBL5465560, “Selectivity Literature for EUbOPEN Chemogenomic Library” (2024).
